Source: patent US6613734B2, “Peptides-containing liposomal surfactants” (The Scripps Research Institute, priority 1988, dated 2003)
Where “and” joins values, the source holds several entries; their conditions need not be identical. Identical values can stand only once. Marks after values point to notes of the source that are not given here.

What was measured:
[1] = pulsating bubble technique ("bubble assay" of Enhorning, Enhorning Surfactometer); type: physicochemical; details: peptide 10% by weight of PL, 37° C., negative pressure, mean of 3; for Pressure Gradient 15″: 15 seconds; for Pressure Gradient 1′: 1 minute; for Pressure Gradient 5′: 5 minutes
Procedure: Measurements of surface pressure across an air-liquid interface (expressed in negative cm of H2O pressure) at minimal (γmin) bubble radius were determined at various times using the pulsating bubble technique described by Enhorning, J. Appl. Physiol. 43: 198-203 (1977).
Briefly, the Enhorning Surfactometer (Surfactometer International, Toronto, Ontario) measures the pressure gradient (ΔP) across a liquid-air interface of a bubble that pulsates at a rate of 20 cycles/min between a maximal (0.55 mm) and minimal (0.4 mm) radius. The bubble, formed in a 37° C., water-enclosed, 20-μl sample chamber, is monitored through a microscopic optic while the pressure changes are recorded on a strip chart recorder calibrated for 0 and −2 cm H2O.
Each of the surfactants identified in Table 5 was assayed for surfactant activity as evidenced by their ability to reduce surface tension in vitro using the “bubble assay” of Enhorning as described above.
After admixture with solvent, each peptide was admixed with phospholipids (PL), DPPC:PG, 3:1, in chloroform in a glass tube so that the amount of polypeptide added equaled one-tenth (10% by. weight) of the amount of PL added, to form a surfactant according to either method A, B or C.
Each of the surfactants was then assayed for surfactant activity as evidenced by their ability to reduce surface tension in vitro in the bubble assay performed as described above. The pressure gradient (ΔP) is a measure of surfactant activity in the polypeptide-PL third admixture which was determined using an Enhorning Surfactometer as described above. Measurements were obtained at time points of 15 seconds (15″), 1 minute (1′) and 5 minutes (5′) and are expressed as a mean of three independent measurements of the indicated polypeptide-PL admixture.

[2] = observation whether peptide/solvent admixture formed a solution or a suspension; type: physicochemical
Procedure: Each polypeptide was admixed with the indicated solvent at a concentration of 2.5 mg of polypeptide per ml of solvent. […] Those admixtures forming a suspension were further admixed by water bath sonication for 10 seconds to form a very fine suspension, sufficient for pipetting using glass pipettes.

fetal rabbit lung = experiment: dynamic compliance, fetal rabbit model; type: in vivo; details: single animal per line
Procedure: A subject polypeptide was first admixed with solvent as described in Example 3. […]
Surfactant was instilled in rabbit fetal lung by injection into the trachea from a single syringe of the following three components such that the components exit the syringe in the following order: (1) 0.05 ml air; (2) 0.1 ml of a synthetic surfactant prepared in Example 4A or either 2 mg of PL or 2 mg of native surfactant; and (3) 0.1 ml air.
From one syringe, a 0.1 ml aliquot of synthetic surfactant prepared as described in Example 4A (or 2 mg of NS or of PL), was instilled into the rabbit trachea as described above, followed by injection of 0.05 ml lactated Ringer's Solution and 0.2 ml air from a second syringe.
From one syringe, 0.1 ml of a synthetic surfactant prepared as described in Example 4A (or 2 mg of NS or of PL), 0.15 ml air, 0.1 ml saline, and 0.3 ml air were injected into the trachea as described above. Two subsequent aliquots of 0.3 ml air were given.
The surfactant activity of exemplary polypeptides of this invention was studied using the methods described in detail previously by Revak, et al, Am. Rev. Respir. Dis. 134: […] (1986), with the exceptions noted hereinbelow.
Twenty-seven day gestation fetal rabbits were delivered by hysterotomy and immediately injected with 0.05 ml Norcuron (Organon, Inc., N.J.) to prevent spontaneous breathing. The fetal rabbits were then weighed and a small cannula was inserted into the trachea by tracheotomy surfactant prepared as described above was then instilled into the fetal rabbit lung by one of the above instillation protocols.
Following instillation the rabbit was placed in a specially designed plethysmograph (containing a Celesco transducer) connected to a ventilator (Baby Bird, Baby Bird Corp., Palm Springs, Calif.) and the instilled lung was ventilated at a rate of 30 cycles per minute with a peak inspiratory pressure of 25 cm H2O, a positive end expiratory pressure of 4 cm H2O and an inspiratory time of 0.5 seconds. In some studies, dynamic compliance measurements were made at various times throughout the ventilation procedure. In others, static compliance measurements were made following ventilation.
Using the plethysmograph, dynamic compliance measurements were made at various times throughout a 60 minute ventilation period. […] Compliance was calculated by the formula below. [formula]
The above equation was solved with a multiple linear regression for C and R. The compliance (C) represents the elastic nature of the lungs and the resistance (R) represents the pressure necessary to overcome the resistance to the flow of gas into and out of the lungs.

[3] = 2.5 mg of polypeptide per ml of solvent, solvent 75% chloroform 25% methanol
[4] = 2.5 μg of peptide per μl of solvent, solvent H2O

Sequence | Pressure Gradient 15″ ([1]; PL (DPPC:PG 3:1) 10 mg/ml) | Pressure Gradient 1′ ([1]; PL (DPPC:PG 3:1) 10 mg/ml) | Pressure Gradient 5′ ([1]; PL (DPPC:PG 3:1) 10 mg/ml) | Admixture Formed [2, 4] | other results
ERYSVILLDTLLGRMLPQLVCR [p51-72] | 1.15 cm of H2O | 0.76 cm of H2O | 0.33 cm of H2O |  | Admixture Formed [2, 3]: suspension
ERYSVILLDTLLGRM [p51-65] |  |  |  | suspension | 
SVILLDTLLGRMLPQLVCRLVLR [p54-76] | 0.92 cm of H2O | 0.82 cm of H2O | 0.23 cm of H2O |  | Admixture Formed ([2]; 2.5 mg of polypeptide per ml of solvent, solvent 71% chloroform 24% methanol): suspension
RYSVILLDTLLGRMLPQLVCRLVLRCSMDD [p52-81] |  |  |  |  | Dynamic Compliance, 30 minutes after surfactant instillation (fetal rabbit lung; 5% peptide to PL, Protocol 3): 517 ml air/cm H2O (g body weight × 10^6) and 434 ml air/cm H2O (g body weight × 10^6); Dynamic Compliance, 60 minutes after surfactant instillation (fetal rabbit lung; 5% peptide to PL, Protocol 3): 226* ml air/cm H2O (g body weight × 10^6) and 55* ml air/cm H2O (g body weight × 10^6); Dynamic Compliance, 30 minutes after surfactant instillation (fetal rabbit lung; 10% peptide to PL, Protocol 2): 195 ml air/cm H2O (g body weight × 10^6) and 43 ml air/cm H2O (g body weight × 10^6); Dynamic Compliance, 60 minutes after surfactant instillation (fetal rabbit lung; 10% peptide to PL, Protocol 2): 1,243 ml air/cm H2O (g body weight × 10^6) and 1,690 ml air/cm H2O (g body weight × 10^6); Pressure Gradient 15″ ([1]; PL (DPPC:PG 3:1) 4 mg/ml): 1.33 cm of H2O; Pressure Gradient 1′ ([1]; PL (DPPC:PG 3:1) 4 mg/ml): 1.19 cm of H2O; Pressure Gradient 5′ ([1]; PL (DPPC:PG 3:1) 4 mg/ml): 0.96 cm of H2O; Admixture Formed ([2]; 2.5 μg of peptide per μl of solvent, solvent methanol:H2O): suspension; Admixture Formed ([2]; 2.5 mg of polypeptide per ml of solvent, solvent 67% DMF 33% chloroform): solution
SVILLDTLLGRMLPQLVCR [p54-72] | 1.28 cm of H2O | 0.92 cm of H2O | 0.38 cm of H2O |  | Admixture Formed ([2]; 2.5 mg of polypeptide per ml of solvent, solvent 76% chloroform 24% methanol): suspension
RLLLLCLLLRLLLLCLLLRLLLLCLLLR [RCL-3] | 0.55 cm of H2O | 0.51 cm of H2O | 0.33 cm of H2O |  | Admixture Formed [2, 3]: suspension
CQCLAERYSVILLDTLLGRMLPQLVCRLVLR [p46-76] | 0.90 cm of H2O | 0.80 cm of H2O | 0.62 cm of H2O |  | Admixture Formed ([2]; 2.5 mg of polypeptide per ml of solvent, solvent 64% chloroform 36% methanol): solution
RLLLLLLLLRLLLLLLLLRLL [RL8] | 0.68 cm of H2O | 0.69 cm of H2O | 0.19 cm of H2O |  | Admixture Formed ([2]; 2.5 mg of polypeptide per ml of solvent, solvent 19% chloroform 81% methanol): suspension
ERYSVILLDTLLGRMLPQLVCRLVLRCSMDD [p51-81] | 0.94 cm of H2O | 0.86 cm of H2O | 0.64 cm of H2O |  | Admixture Formed ([2]; 2.5 mg of polypeptide per ml of solvent, solvent 50% chloroform 50% methanol): suspension
VAGGICQCLAERYSV [p41-55] |  |  |  | solution | 
C RLVLRCSMDD (N-terminal Cys) [p71-81] |  |  |  | suspension | 
VAQVCRVVPLVAGGI [p31-45] |  |  |  | solution | 
